Source: ChEMBL document CHEMBL2163343, “Sesquiterpene lactones from Tithonia diversifolia act as peroxisome proliferator-activated receptor agonists” (Bioorg Med Chem Lett, 2012)

Tests used:
[1] = molecular target: T1, Peroxisome proliferator-activated receptor alpha (Homo sapiens) (UniProt Q07869); test: Transactivation of PPARalpha expressed in human HepG2 cells assessed as Sult2a1 expression at 10 uM by luciferase reporter gene assay relative to vehicle-treated control; format: cell-based
T1 sequence (whole entry): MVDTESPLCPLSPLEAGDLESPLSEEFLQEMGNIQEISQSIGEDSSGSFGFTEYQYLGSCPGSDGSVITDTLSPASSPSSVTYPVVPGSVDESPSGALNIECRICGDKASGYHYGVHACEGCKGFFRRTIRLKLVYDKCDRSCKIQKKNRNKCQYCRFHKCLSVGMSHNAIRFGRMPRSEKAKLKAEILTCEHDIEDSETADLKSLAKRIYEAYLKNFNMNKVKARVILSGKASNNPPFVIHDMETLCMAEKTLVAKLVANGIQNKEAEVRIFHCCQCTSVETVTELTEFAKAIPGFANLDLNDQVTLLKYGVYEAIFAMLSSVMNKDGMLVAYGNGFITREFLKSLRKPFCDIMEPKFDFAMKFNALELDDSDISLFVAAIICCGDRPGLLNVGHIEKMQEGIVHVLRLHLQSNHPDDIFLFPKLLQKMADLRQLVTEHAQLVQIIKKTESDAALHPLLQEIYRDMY

[2] = molecular target: T2, Peroxisome proliferator-activated receptor gamma (Homo sapiens) (UniProt P37231); test: Agonist activity at human PPARgamma expressed in human HEK293 cells assessed as ABCA1 promoter transactivation by luciferase reporter gene assay relative to vehicle-treated control; format: functional, cell-based
T2 sequence (whole entry): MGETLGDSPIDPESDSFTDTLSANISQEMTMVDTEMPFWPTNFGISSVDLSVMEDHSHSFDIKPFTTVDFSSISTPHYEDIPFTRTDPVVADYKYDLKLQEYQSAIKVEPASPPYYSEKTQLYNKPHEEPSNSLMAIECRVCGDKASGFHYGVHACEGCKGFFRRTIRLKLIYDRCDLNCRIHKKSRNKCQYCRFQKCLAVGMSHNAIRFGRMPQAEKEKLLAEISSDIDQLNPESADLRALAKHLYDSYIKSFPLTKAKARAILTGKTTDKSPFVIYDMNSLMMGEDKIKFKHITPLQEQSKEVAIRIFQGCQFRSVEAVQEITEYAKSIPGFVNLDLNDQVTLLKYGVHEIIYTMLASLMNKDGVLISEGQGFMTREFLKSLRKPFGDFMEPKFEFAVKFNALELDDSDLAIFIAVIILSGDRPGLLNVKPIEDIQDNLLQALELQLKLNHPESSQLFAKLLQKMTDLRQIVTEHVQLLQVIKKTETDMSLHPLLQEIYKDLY

[3] = molecular target: T3, Peroxisome proliferator-activated receptor gamma (Homo sapiens, UniProt P37231); test: Inhibition of fluormone binding to human PPARgamma LBD after 2 hrs by competitive fluorescence polarization assay
T3 sequence (P37231 whole entry): T2 sequence (whole entry)

[4] = molecular target: T2, Peroxisome proliferator-activated receptor gamma (Homo sapiens); test: Agonist activity at human PPARgamma expressed in human HEK293 cells assessed as SHP promoter transactivation by luciferase reporter gene assay relative to vehicle-treated control; format: functional, cell-based
[5] = molecular target: T2, Peroxisome proliferator-activated receptor gamma (Homo sapiens); test: Agonist activity at human PPARgamma expressed in human HEK293 cells assessed as SHP promoter transactivation at 1 uM by luciferase reporter gene assay relative to vehicle-treated control; format: functional, cell-based
[6] = molecular target: T2, Peroxisome proliferator-activated receptor gamma (Homo sapiens); test: Agonist activity at human PPARgamma expressed in human HEK293 cells assessed as ABCA1 promoter transactivation at 1 uM by luciferase reporter gene assay relative to vehicle-treated control; format: functional, cell-based
[7] = molecular target: T2, Peroxisome proliferator-activated receptor gamma (Homo sapiens); test: Agonist activity at human PPARgamma expressed in human HEK293 cells assessed as ABCA1 promoter transactivation at 10 uM by luciferase reporter gene assay relative to vehicle-treated control; format: functional, cell-based
[8] = molecular target: T2, Peroxisome proliferator-activated receptor gamma (Homo sapiens); test: Agonist activity at human PPARgamma expressed in human HEK293 cells at 10 uM by luciferase reporter gene assay relative to vehicle-treated control; format: functional, cell-based
[9] = molecular target: T1, Peroxisome proliferator-activated receptor alpha (Homo sapiens); test: Transactivation of PPARalpha expressed in human HepG2 cells assessed as Sult2a1 expression at 100 nM by luciferase reporter gene assay relative to vehicle-treated control; format: cell-based
[10] = molecular target: T2, Peroxisome proliferator-activated receptor gamma (Homo sapiens); test: Agonist activity at human PPARgamma expressed in human HEK293 cells assessed as SHP promoter transactivation at 10 uM by luciferase reporter gene assay relative to vehicle-treated control; format: functional, cell-based
[11] = molecular target: T2, Peroxisome proliferator-activated receptor gamma (Homo sapiens); conditions: HEK293
Description: Agonist activity at human PPARgamma expressed in human HEK293 cells assessed as ABCA1 promoter transactivation at 100 nM by luciferase reporter gene assay relative to vehicle-treated control

| RLU [1] | Activity [2] | IC50 [3] | Activity [4] | RLU [5] | RLU [6] | RLU [7] | RLU [8] | RLU [9] | RLU [10] | RLU [11] | Compound |
| --- | --- | --- | --- | --- | --- | --- | --- | --- | --- | --- | --- |
| 2.44 |  |  |  |  |  |  |  |  |  |  | CCOC(=O)C(C)(C)Oc1ccc(Cl)cc1 |
| 2.47 | Dose-dependent effect | 55 µM | Dose-dependent effect | 2.8 | 2.1 | 2.9 | 1.5 | 1.4 | 3.5 |  | C=C1C(=O)O[C@@H]2C[C@H](C)[C@@]3(O)C[C@H](O)[C@@](C)(C[C@@H](OC(=O)C(C)C)[C@@H]12)O3 [TAGITININ A] |
| 2.33 | Dose-dependent effect | 27 µM | Dose-dependent effect |  | 2.1 | 3.1 | 2 | 1.4 | 3.4 | 1.6 | C=C1C(=O)O[C@@H]2C[C@H](C)[C@@]3(O)CC[C@@](C)(C[C@@H](OC(=O)C(C)C)[C@@H]12)O3 [TIROTUNDIN] |
